ChEMBL document CHEMBL5120786, “Metabolomics-assisted discovery of a new anticancer GLS-1 inhibitor chemotype from a nortopsentin-inspired library: From phenotype screening to target identification” (Eur J Med Chem, 2022)
Activity calls are given as the source filed them. No cut-off for these calls is given here.

What was measured:
[1] = test system: Panel NCI-60 (60 carcinoma cell lines); test: Anticancer activity against human NCI-60 cells assessed as cell growth inhibition incubated for 72 hrs by MTT assay; format: functional
MCF-10A = test: Cytotoxicity against human MCF-10A cells assessed as cell viability incubated for 72 hrs by MTT assay; format: functional, cell-based
MCF7 = test: Cytotoxicity against human MCF7 cells assessed as cell viability incubated for 72 hrs by MTT assay; format: functional, cell-based
HepG2 [2] = test: Cytotoxicity against human HepG2 cells assessed as cell viability incubated for 72 hrs by MTT assay; format: functional, cell-based
HepG2 [3] = test: Inhibition of cell migration in human HepG2 cells assessed as reduction in wound closure at 1.5 uM measured after 24 to 48 hrs by wound healing assay based contrat-phase microscopic analysis; format: functional; conditions: time 24-48 hrs
HepG2 [4] = test: Induction of cell cycle arrest in human HepG2 cells assessed as decrease in cyclin-B1 expression at 1.5 uM measured after 72 hrs by Western blotting analysis relative to control; format: functional; set-up: scale not given: the % may be the effect or the level left
[5] = molecular target: T1, Glutaminase liver isoform, mitochondrial (Homo sapiens, UniProt Q9UI32); test: Inhibition of human recombinant GLS-2 by measuring glutamate production incubated for 1 hr by fluorescence based multimode plate reader method
T1 sequence (Q9UI32 whole entry): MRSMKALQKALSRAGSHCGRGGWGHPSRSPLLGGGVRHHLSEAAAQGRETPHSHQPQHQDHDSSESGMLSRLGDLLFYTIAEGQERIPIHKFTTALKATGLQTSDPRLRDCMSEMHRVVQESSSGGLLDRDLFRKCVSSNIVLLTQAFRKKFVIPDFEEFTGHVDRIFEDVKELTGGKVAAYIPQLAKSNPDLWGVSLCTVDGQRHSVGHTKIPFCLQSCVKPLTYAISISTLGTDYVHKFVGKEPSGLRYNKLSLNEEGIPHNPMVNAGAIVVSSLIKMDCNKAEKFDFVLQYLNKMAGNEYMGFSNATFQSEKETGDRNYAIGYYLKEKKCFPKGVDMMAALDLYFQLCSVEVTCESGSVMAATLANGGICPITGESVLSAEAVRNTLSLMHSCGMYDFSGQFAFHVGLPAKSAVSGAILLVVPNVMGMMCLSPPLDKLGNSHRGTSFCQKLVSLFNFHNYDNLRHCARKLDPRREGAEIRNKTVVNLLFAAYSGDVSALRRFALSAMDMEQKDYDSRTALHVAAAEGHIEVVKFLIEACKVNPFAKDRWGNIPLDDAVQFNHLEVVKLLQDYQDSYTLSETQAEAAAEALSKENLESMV

SAOS-2 = test: Cytotoxicity against human SAOS-2 cells overexpressing GLS-1; format: functional, cell-based
HepG2 [6] = test: Inhibition of cell invasion in human HepG2 cells assessed as reduction in MMP-9 level at 2.5 uM after 8 hrs by densitometric analysis; format: functional; set-up: scale not given: the % may be the effect or the level left
HepG2 [7] = test: Downregulation of spermidine level in human HepG2 cells; format: functional, cell-based
[8] = Cytotoxicity against human U-87 MG cells overexpressing GLS-1; format: functional, cell-based, U-87MG ATCC
A-375 = test: Cytotoxicity against human A-375 cells overexpressing GLS-1; format: functional, cell-based
HepG2 [9] = test: Cytotoxicity against human HepG2 cells assessed as cell viability incubated for 72 hrs in presence of alpha-ketoglutarate by MTT assay; format: functional, cell-based; conditions: HepG2, 72 h
[10] = molecular target: T2, Glutaminase kidney isoform, mitochondrial (Homo sapiens, UniProt O94925); test: Inhibition of human recombinant GLS-1 by measuring glutamate production incubated for 1 hr by fluorescence based multimode plate reader method
T2 sequence (O94925 whole entry): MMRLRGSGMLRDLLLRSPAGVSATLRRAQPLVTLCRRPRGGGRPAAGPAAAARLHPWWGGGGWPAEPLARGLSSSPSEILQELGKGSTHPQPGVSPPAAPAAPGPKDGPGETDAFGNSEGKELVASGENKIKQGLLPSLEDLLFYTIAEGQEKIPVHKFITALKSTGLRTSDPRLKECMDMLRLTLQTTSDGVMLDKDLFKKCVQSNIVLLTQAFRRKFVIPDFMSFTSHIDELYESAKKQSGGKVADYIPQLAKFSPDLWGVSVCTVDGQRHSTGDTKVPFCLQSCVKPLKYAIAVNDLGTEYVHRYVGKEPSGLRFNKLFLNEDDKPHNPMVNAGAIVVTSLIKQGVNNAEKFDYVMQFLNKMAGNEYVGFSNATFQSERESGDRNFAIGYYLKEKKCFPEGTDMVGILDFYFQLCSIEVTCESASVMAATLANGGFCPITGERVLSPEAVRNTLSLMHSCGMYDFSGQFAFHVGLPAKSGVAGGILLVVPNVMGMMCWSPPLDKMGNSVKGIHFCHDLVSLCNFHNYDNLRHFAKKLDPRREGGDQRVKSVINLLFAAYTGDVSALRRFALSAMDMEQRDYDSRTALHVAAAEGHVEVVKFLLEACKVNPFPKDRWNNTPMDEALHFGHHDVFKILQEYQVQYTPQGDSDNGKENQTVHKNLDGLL

HepG2 [11] = test: Inhibition of cell invasion in human HepG2 cells assessed as reduction in MMP-2 level at 2.5 uM after 8 hrs by densitometric analysis; format: functional; set-up: scale not given: the % may be the effect or the level left
HepG2 [12] = test: Downregulation of polyamine pathway in human HepG2 cells assessed as increase in intracellular ROS production; format: functional, cell-based
HepG2 [13] = test: Induction of cell cycle arrest in human HepG2 cells assessed as decrease in cyclin-B1 expression at 1.5 uM measured after 8 to 24 hrs by Western blotting analysis relative to control; format: functional; set-up: scale not given: the % may be the effect or the level left; conditions: time 8-24 hrs
HepG2 [14] = test: Anticlonogenic activity against human HepG2 cells assessed as reduction of colony formation at 0.5 uM incubated for 14 days by crystal violet staining method; format: functional; set-up: scale not given: the % may be the effect or the level left; conditions: time 14 day
MIA PaCa-2 = test: Cytotoxicity against human MIA PaCa-2 cells overexpressing GLS-1; format: functional, cell-based
HepG2 [15] = test: Downregulation of GSH level in human HepG2 cells; format: functional, cell-based
A549 = test: Cytotoxicity against human A549 cells overexpressing GLS-1; format: functional, cell-based
HepG2 [16] = test: Inhibition of cell invasion in human HepG2 cells assessed as reduction in MMP-2 level at 2.5 uM after 72 hrs by densitometric analysis; format: functional; set-up: scale not given: the % may be the effect or the level left
HepG2 [17] = test: Inhibition of cell invasion in human HepG2 cells assessed as reduction in MMP-9 level at 2.5 uM after 72 hrs by densitometric analysis; format: functional; set-up: scale not given: the % may be the effect or the level left
HepG2 [18] = test: Downregulation of c-Myc level in human HepG2 cells; format: functional, cell-based
HepG2 [19] = test: Upregulation of stearoyl-carnitine level in human HepG2 cells; format: functional, cell-based

COc1ccc2c(c1)c(-c1nc(-c3c[nH]c4ncccc34)cs1)cn2CCCCN1CCCCC1
GI50 ([1]; read-out: GI50): 1.18 µM
GI50 ([1]; read-out: pGI50 (converted)): 1.95 µM

COc1ccc2c(c1)c(-c1nc(-c3cn(C)c4ncccc34)cs1)cn2CCCCN1CCOCC1
GI50 ([1]; read-out: GI50): 0.02 µM
GI50 ([1]; read-out: pGI50 (converted)): 12 µM
Activity (MCF-10A): Active

COc1ccc2c(c1)c(-c1nc(-c3cn(C)c4ncccc34)cs1)cn2CCN1CCCCC1
Activity (MCF7): Active
Activity (MCF-10A): Active

Fc1ccc2c(c1)c(-c1nc(-c3c[nH]c4ncccc34)cs1)cn2CCCN1CCCCC1
GI50 ([1]; read-out: GI50): 1.28 µM
GI50 ([1]; read-out: pGI50 (converted)): 3.72 µM
Activity (MCF7): Active
Activity (MCF-10A): Active

c1cnc2[nH]cc(-c3csc(-c4cn(CCCCN5CCCCC5)c5ccccc45)n3)c2c1
Activity (HepG2 [2]): Active
Activity (MCF7): Active

COc1ccc2c(c1)c(-c1nc(-c3c[nH]c4ncccc34)cs1)cn2CCO
Activity (HepG2 [2]): Active
Activity (MCF7): Active

Cn1cc(-c2csc(-c3cn(CCO)c4ccccc34)n2)c2cccnc21
Activity (HepG2 [2]): Active
Activity (MCF7): Active

Cn1cc(-c2csc(-c3cn(CCN4CCOCC4)c4ccc(F)cc34)n2)c2cccnc21
Activity (HepG2 [2]): Active
GI50 ([1]; read-out: GI50): 1.52 µM
GI50 ([1]; read-out: pGI50 (converted)): 5.62 µM
Activity (MCF7): Active

COc1ccc2c(c1)c(-c1nc(-c3cn(C)c4ncccc34)cs1)cn2CCCCN1CCCCC1
Activity (HepG2 [2]): Active
GI50 ([1]; read-out: GI50): 1.07 µM
GI50 ([1]; read-out: pGI50 (converted)): 1.91 µM
Activity (MCF7): Active

COc1ccc2c(c1)c(-c1nc(-c3c[nH]c4ncccc34)cs1)cn2CCN1CCCCC1
Activity (HepG2 [2]): Active
Activity (MCF7): Active

OCCn1cc(-c2nc(-c3c[nH]c4ncccc34)cs2)c2cc(Br)ccc21
Activity (HepG2 [2]): Active
Activity (MCF7): Active

COc1ccc2c(c1)c(-c1nc(-c3c[nH]c4ncccc34)cs1)cn2CCCN1CCCCC1
GI50 ([1]; read-out: GI50): 1.19 µM
GI50 ([1]; read-out: pGI50 (converted)): 3.31 µM
Activity (MCF7): Active
Activity (MCF-10A): Active

Cn1cc(-c2csc(-c3cn(CCO)c4ccc(Br)cc34)n2)c2cccnc21
Activity (HepG2 [2]): Active
Activity (MCF7): Active

Cn1cc(-c2csc(-c3cn(CCCCN4CCOCC4)c4ccccc34)n2)c2cccnc21
Activity (MCF-10A): Active

COc1ccc2c(c1)c(-c1nc(-c3c[nH]c4ncccc34)cs1)cn2CCCN1CCOCC1
Activity (HepG2 [2]): Active
GI50 ([1]; read-out: GI50): 0.48 µM
GI50 ([1]; read-out: pGI50 (converted)): 4.07 µM
Activity (MCF7): Active

Fc1ccc2c(c1)c(-c1nc(-c3c[nH]c4ncccc34)cs1)cn2CCCN1CCOCC1
Activity (MCF-10A): Active

COc1ccc2c(c1)c(-c1nc(-c3c[nH]c4ncccc34)cs1)cn2CCCCN1CCOCC1
GI50 ([1]; read-out: GI50): 0.22 µM
GI50 ([1]; read-out: pGI50 (converted)): 5.25 µM

Cn1cc(-c2csc(-c3cn(CCCCN4CCCCC4)c4ccc(F)cc34)n2)c2cccnc21
GI50 ([1]; read-out: GI50): 1.46 µM
GI50 ([1]; read-out: pGI50 (converted)): 16.2 µM

Br.Fc1ccc2c(c1)c(-c1nc(-c3c[nH]c4ncccc34)cs1)cn2CCCCN1CCOCC1
Activity (HepG2 [3]): Active
Activity (HepG2 [4]): 75%
EC50 [5]: 12.9 µM
EC50 (SAOS-2): 4.85 µM
EC50 (HepG2 [2]; HepG2, 72 h): 3.25 µM
Activity (HepG2 [6]): 50%
Activity (HepG2 [7]): Active
EC50 [8]: 3.63 µM
EC50 (A-375): 5.84 µM
EC50 (HepG2 [9]): 27.2 µM
EC50 [10]: 3.96 µM
Activity (HepG2 [11]): 20%
Activity (HepG2 [12]): Active
Activity (HepG2 [13]): 50%
EC50 (MCF7; MCF7, 72 h): 23.1 µM
Activity (HepG2 [14]): <=70%
EC50 (MIA PaCa-2): 6.98 µM
Activity (HepG2 [15]): Active
EC50 (A549): 8.47 µM
Activity (HepG2 [16]): 80%
Activity (HepG2 [17]): 75%
Activity (HepG2 [18]): Active
Activity (HepG2 [19]): Active
EC50 (MCF-10A): 29.1 µM

Cn1cc(-c2csc(-c3cn(CCCCN4CCOCC4)c4ccc(F)cc34)n2)c2cccnc21
Activity (MCF-10A): Active

c1cnc2[nH]cc(-c3csc(-c4cn(CCCN5CCCCC5)c5ccccc45)n3)c2c1
GI50 ([1]; read-out: GI50): 1.1 µM
GI50 ([1]; read-out: pGI50 (converted)): 2.34 µM
Activity (MCF7): Active
Activity (MCF-10A): Active
